Ends that are not written are not given here.
Columns and labels:
KITENIN homodimer = molecular target: T1, KITENIN homodimer (Homo sapiens, UniProt Q8TAA9); assay: In vitro pull-down of purified KITENIN-GST and KITENIN-His; format: biochemical; details: KDIP 5 μM, 4°C, 2 h, GST pull-down
T1 construct: Lysates of 293T cells expressing full‐length KITENIN‐myc; expressed in transfected cells; host or cells: Caco2
T1 sequence (Q8TAA9 1-524): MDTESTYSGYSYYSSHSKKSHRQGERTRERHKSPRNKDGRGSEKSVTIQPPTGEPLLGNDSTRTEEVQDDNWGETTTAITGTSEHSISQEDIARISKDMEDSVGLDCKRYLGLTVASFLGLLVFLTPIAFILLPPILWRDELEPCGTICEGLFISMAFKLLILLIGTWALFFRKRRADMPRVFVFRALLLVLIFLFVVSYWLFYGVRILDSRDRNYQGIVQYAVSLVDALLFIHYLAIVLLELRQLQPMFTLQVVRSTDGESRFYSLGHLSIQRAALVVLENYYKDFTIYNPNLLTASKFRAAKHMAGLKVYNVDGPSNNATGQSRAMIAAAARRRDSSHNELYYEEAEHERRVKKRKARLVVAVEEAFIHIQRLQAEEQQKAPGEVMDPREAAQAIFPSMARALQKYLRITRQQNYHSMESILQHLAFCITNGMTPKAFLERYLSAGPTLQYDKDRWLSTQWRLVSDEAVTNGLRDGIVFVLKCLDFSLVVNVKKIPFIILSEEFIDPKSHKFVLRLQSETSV
Description: GST‐KITENIN or its derivatives were immobilized on glutathione‐sepharose beads. Myc‐tagged KITENIN was incubated with GST‐tagged KITENIN or its derivative proteins immobilized on glutathione‐sepharose as indicated. The bound protein complexes were eluted and analysed by SDS–PAGE followed by IB. To detect in vitro KITENIN homodimerization, […] GST‐KITENIN was incubated with Ni‐NTA‐purified KITENIN‐His and KDIP (5 μM) in the pull‐down buffer (50‐mM Tris.Cl [pH 7.5], 1‐mM dithiothreitol [DTT] 4% [v/v] glycerol, .1 mg/ml of BSA, 5‐mM MgCl2, 1‐mM ATP and 50‐mM NaCl) at 4°C for 2 h. […]
FIGURE 2 KAI1 C‐terminal interacting tetraspanin (KITENIN) dimerization‐interfering peptide (KDIP) suppresses KITENIN‐induced enhanced cell invasion through the inhibition of the homodimerization of KITENIN. […] After 48 h of treatment, KITENIN transcripts in cells were analysed by the 2^−ΔΔ ^CT method using Q‐PCR. […] Caco2 cells were co‐transfected with KITENIN‐V5/Myc and treated with or without KDIP or scrambled peptide (scr) and were immunoprecipitated with anti‐V5 antibody and detected by indicated antibodies. Numerals indicated a quantification of the MYC bands normalized to the corresponding V5 bands (left panel). […] The histogram represents invading cells, which were counted at four chosen areas and shown by bar graphs (mean ± SEM, n = 4, ^** p < .01). […]

CT-26/iRFP/KITENIN cells = assay: Transwell cell invasion assay, CT-26/iRFP/KITENIN or CT-26/KITENIN-V5 cells; format: cell-based, mouse; details: increasing doses of KDIP, compared with scramble peptide

dimerization of purified KITENIN proteins in vitro (in words) (KITENIN homodimer): directly reduced
Sequence: YARVRRRGPRRWRLVSDEAV [KDIP]
cell invasion of CT-26/KITENIN-V5 cells (in words) (CT-26/iRFP/KITENIN cells): significantly reduced
